System: Candida albicans MTCC1637
Experiment: Broth assay (two fold dilution method) of garlic extract in combination with essential oils
Format: cell-based
Conditions: Table 3
Description: Following tables presents the results of evaluation of antifungal activities of water or solvent extracts of garlic in combinations with the essential oils. […] The combinations of essential oils and garlic extracts were made according to their MICs ([…]). […] But only selected oils viz. Mentha spicata van. […] The activity increased to several folds when these combinations were added to constituent of essential oil like menthyl acetate. […] The broth assay was carried out following the NCCLS documents published by National Committee for Clinical and Laboratory Standards (USA) and disc diffusion assay according to Bauer et al (Bauer et al, […], American Journal of Clinical Pathology, 45:493-496).

CC(=O)OC1CC(C)CCC1C(C)C (stereo not shown) [Menthyl acetate]
FIC value (garlic extract 1/1600): 1.0
Fold enhancement on the basis of Reduction in the MIC of oil in combination (garlic extract 1/1600): 2
Type of Interaction (garlic extract 1/1600): Indifference
Reduction in the MIC of oil (garlic extract 1/1600 in combination): 1/1600
FIC value (garlic extract 1/3200): 0.75
Fold enhancement on the basis of Reduction in the MIC of oil in combination (garlic extract 1/3200): 2
Type of Interaction (garlic extract 1/3200): Additive
Reduction in the MIC of oil (garlic extract 1/3200 in combination): 1/1600
FIC value (garlic extract 1/6400): 0.625
Fold enhancement on the basis of Reduction in the MIC of oil in combination (garlic extract 1/6400): 2
Type of Interaction (garlic extract 1/6400): Additive
Reduction in the MIC of oil (garlic extract 1/6400 in combination): 1/1600
MIC of essential oil/extract (alone, dilution): 1/800

— patent publication US7291349B2, “Anti-dermatophytic preparation and use thereof” (priority 2003, dated 2007)
